Data as given in PMC10418735, “Lipophilic Studies and In Silico ADME Profiling of Biologically Active 2-Aminothiazol-4(5H)-one Derivatives” (International Journal of Molecular Sciences, 2023).

Assays:
[1] = Lipophilicity by RP-HPLC (methanol/water, RP-18 column); type: physicochemical; settings: for −S (slope of the regression curve), RP–HPLC / log kw: methanol/water, RP-HPLC; for log kw: extrapolated to zero methanol concentration, 25 °C; for Φ0 (chromatographic lipophilicity parameter), RP–HPLC: Φ0 = −log kw/S
Description: The HPLC experiments were performed on the Shimadzu HPLC system (Kyoto, Japan) equipped with solvent delivery pump LC-20AD, UV–VIS detector model SPD-20A, degasser model DGU-20A5, a column oven model CTO-20A, and a column Superspher® 100 RP-18 (4 μm), Merck (Darmstadt, Germany). Methanol and water for HPLC from POCH (Gliwice, Poland) were used as solvents. Mobile phase methanol/water varied in the various ratios. Methanol concentration expressed as volume fraction v/v, varied in the range from 0.55 to 0.95 in constant steps of 0.05. Compounds 1–28 were dissolved in methanol (1 mg/mL). The mobile phase flow rate was 0.7 mL/min. The injection volume was 0.02 mL. All analyzes were performed at 25 °C. Experiments were performed in triplicate with similar results.
The retention coefficient k was calculated from the following relationship:(1) k=tr/tm−1, where tr [min]—retention time, and tm [min]—time for dead volume (measured by use of uracil).
To determine the linear relationship between the values of the log k parameter and the concentration of methanol in the mobile phase, the Soczewiński–Wachtmeister equation was used:(2) logk= log kw+SΦ, where log kw —value extrapolated to zero methanol concentration, Φ —methanol concentration in the mobile phase (volume fraction v/v), and S—the slope of the regression curve.
The parameter Φ0 was calculated from the equation:(3) Φ0=−log kw/S.

[2] = Lipophilicity by RP-TLC (methanol/water, HPTLC 60RP-18 plates); type: physicochemical; settings: for −S (slope of the regression curve), RP–TLC / RM0: methanol/water, RP-TLC; for RM0: extrapolated to zero methanol concentration, 22 °C; for Φ0 (chromatographic lipophilicity parameter), RP–TLC: Φ0 = −RM0/S
Description: Specifically, 10 × 10 cm plates with silica gel HPTLC 60RP-18 WF254s (Merck, Darmstadt, Niemcy) were used as the stationary phase. Methanol and water for HPLC from POCH (Gliwice, Poland) were used as solvents. Methanol concentration expressed as volume fraction v/v, varied in the range from 0.5 to 0.7 in constant steps of 0.05. Test compounds were dissolved in methanol (2 mg/mL), and then samples (0.01 mL) of each were applied to plates, which were developed in a horizontal DS chamber (Chromdes, Lublin, Poland).
The developing distance was 8 cm. Developed plates were air-dried and observed under 254 nm ultraviolet lamp. All analyzes were performed at 22 °C. Experiments were performed in triplicate with similar results.
For all the compounds, the relative lipophilicity RM values for five methanol–water mobile phases were calculated by the use of the following formula:(4) RM=log[1−RF/RF].
The linear relationship between the RM values and the concentration of methanol in the mobile phase to determine the lipophilicity parameters RM0 is described by the following equation:(5) RM=RM0+SΦ, where Φ —methanol concentration in the mobile phase (volume fraction v/v), and S—the slope of the regression curve.
The quantity Φ0 was calculated from the following equation:(6) Φ0=−RM0/S.

Compound | −S (slope of the regression curve), RP–HPLC [1] | log kw [1] | Φ0 (chromatographic lipophilicity parameter), RP–HPLC [1] | −S (slope of the regression curve), RP–TLC [2] | RM0 [2] | Φ0 (chromatographic lipophilicity parameter), RP–TLC [2]
CCCC1SC(NC(C)(C)C)=NC1=O (centres unmarked) [Compound 12] | 3.606 | 2.46 | 0.682 | 2.426 | 1.71 | 0.703
CC(C)NC1=NC(=O)C2(CCC2)S1 [Compound 9] | 2.890 | 1.79 | 0.619 | 1.990 | 1.37 | 0.691
CCC1SC(NC23CC4CC(CC(C4)C2)C3)=NC1=O (centres unmarked) [Compound 20] | 4.437 | 3.6 | 0.811 | 2.678 | 2.30 | 0.860
CC(C)(C)NC1=NC(=O)C(C)(C)S1 [Compound 14] | 3.320 | 2.02 | 0.608 | 1.826 | 1.19 | 0.652
CCC1SC(NC(C)(C)C)=NC1=O (centres unmarked) [Compound 11] | 3.073 | 1.88 | 0.612 | 2.478 | 1.59 | 0.643
CC(C)NC1=NC(=O)C(c2ccc(Br)cc2)S1 (centres unmarked) [Compound 7] | 4.422 | 3.22 | 0.728 | 3.870 | 2.85 | 0.736
CC(C)(C)NC1=NC(=O)C(c2ccccc2)S1 (centres unmarked) [Compound 15] | 4.449 | 3.25 | 0.730 | 4.293 | 3.17 | 0.739
CCC1SC(NC(C)C)=NC1=O (centres unmarked) [Compound 2] | 3.254 | 1.86 | 0.571 | 2.075 | 1.39 | 0.668
O=C1N=C(NC23CC4CC(CC(C4)C2)C3)SC1c1ccccc1 (centres unmarked) [Compound 24, 2-(adamantan-1-ylamino)-5-phenylthiazol-4(5H)-one] | 5.024 | 4.13 | 0.822 | 4.203 | 3.31 | 0.787
CC1(C)SC(NC23CC4CC(CC(C4)C2)C3)=NC1=O [Compound 23] | 4.392 | 3.54 | 0.806 | 2.446 | 2.11 | 0.863
CC(C)(C)NC1=NC(=O)C2(CCCCC2)S1 [Compound 17, 2-(tert-butylamino)-1-thia-3-azaspiro[4.5]dec-2-en-4-one] | 3.904 | 2.86 | 0.732 | 2.477 | 1.89 | 0.762
CC(C)C1SC(NC(C)(C)C)=NC1=O (centres unmarked) [Compound 13] | 3.585 | 2.39 | 0.667 | 2.095 | 1.46 | 0.699
CC(C)(C)NC1=NC(=O)C2(CCC2)S1 [Compound 18] | 3.297 | 2.15 | 0.652 | 2.476 | 1.69 | 0.683
CC(C)C1SC(NC23CC4CC(CC(C4)C2)C3)=NC1=O (centres unmarked) [Compound 22] | 4.744 | 3.94 | 0.830 | 3.175 | 2.67 | 
O=C1CSC(NC23CC4CC(CC(C4)C2)C3)=N1 [Compound 28, 2-(Adamantylamino)thiazol-4(5H)-one] | 3.783 | 2.87 | 0.759 | 2.482 | 2.06 | 0.832
CC1SC(NC23CC4CC(CC(C4)C2)C3)=NC1=O (centres unmarked) [Compound 19] | 4.099 | 3.22 | 0.786 | 3.148 | 2.55 | 0.810
CC(C)NC1=NC(=O)C2(CCCCC2)S1 [Compound 8] | 4.170 | 2.97 | 0.712 | 2.877 | 2.04 | 0.709
CC(C)NC1=NC(=O)C(c2ccccc2)S1 (centres unmarked) [Compound 6] | 4.3069 | 2.84 | 0.659 | 2.049 | 1.58 | 0.771
O=C1N=C(NC23CC4CC(CC(C4)C2)C3)SC1c1ccc(Br)cc1 (centres unmarked) [Compound 25, 2-(adamantan-1-ylamino)-5-(4-bromophenyl)thiazol-4(5H)-one] | 5.578 | 5.63 | 1.009 | 3.277 | 3.56 | 1.086
CC1SC(NC(C)(C)C)=NC1=O (centres unmarked) [Compound 10] | 3.122 | 1.74 | 0.557 | 2.393 | 1.57 | 0.658
CC(C)(C)NC1=NC(=O)C(c2ccc(Br)cc2)S1 (centres unmarked) [Compound 16] | 4.537 | 3.38 | 0.745 | 4.131 | 3.20 | 0.774
O=C1N=C(NC23CC4CC(CC(C4)C2)C3)SC12CCC2 [Compound 27] | 4.383 | 3.66 | 0.835 | 3.025 | 2.56 | 0.847
CC(C)NC1=NC(=O)C(C(C)C)S1 (centres unmarked) [Compound 4] | 3.603 | 2.28 | 0.633 | 2.127 | 1.41 | 0.663
CCCC1SC(NC23CC4CC(CC(C4)C2)C3)=NC1=O (centres unmarked) [Compound 21] | 4.859 | 4.08 | 0.840 | 2.564 | 2.33 | 0.909
CC(C)NC1=NC(=O)C(C)(C)S1 [Compound 5] | 3.400 | 1.94 | 0.571 | 1.903 | 1.20 | 0.629
CC(C)NC1=NC(=O)C(C)S1 (centres unmarked) [Compound 1, 5-methyl-2-isopropylaminothiazol-4(5H)-one] | 2.975 | 1.35 | 0.454 | 1.280 | 0.94 | 0.734
